Assay: xn = mol fraction of the nth substance listed

C1CCCCC1 + Cc1ccccc1
viscosity [mPa·s]
Details | 101 kPa | 101.33 kPa
293.95 K, x1 = 0.1 | – | 0.6126
294.15 K, x1 = 0.5 | – | 0.6762
294.25 K, x1 = 0.2 | – | 0.6123
294.45 K, x1 = 0.3 | – | 0.6228
294.75 K, x1 = 0.4 | – | 0.6357
294.75 K, x1 = 0.6 | – | 0.6922
296.15 K, x1 = 0.8 | – | 0.778
303 K, x2 = 0.04 | 0.7881 | –
303 K, x2 = 0.081 | 0.7486 | –
303 K, x2 = 0.162 | 0.6926 | –
303 K, x2 = 0.324 | 0.6161 | –
303 K, x2 = 0.484 | 0.5705 | –
303 K, x2 = 0.644 | 0.5419 | –
303 K, x2 = 0.803 | 0.5252 | –
303 K, x2 = 0.882 | 0.5268 | –
303 K, x2 = 0.96 | 0.5298 | –
303.15 K, x1 = 0.0958 | 0.5395 | –
303.15 K, x1 = 0.0999 | 0.5263 | –
303.15 K, x1 = 0.2 | 0.5319 | 0.5546
303.15 K, x1 = 0.2959 | 0.5409 | –
303.15 K, x1 = 0.4126 | 0.5566 | –
303.15 K, x1 = 0.4964 | 0.5726 | –
303.15 K, x1 = 0.6005 | 0.6005 | –
303.15 K, x1 = 0.7032 | 0.6367 | –
303.15 K, x1 = 0.7978 | 0.6827 | –
303.15 K, x1 = 0.8946 | 0.7448 | –
303.15 K, x2 = 0.0999 | 0.7364 | –
303.15 K, x2 = 0.2003 | 0.6714 | –
303.15 K, x2 = 0.3 | 0.6226 | –
303.15 K, x2 = 0.3999 | 0.5886 | –
303.15 K, x2 = 0.5 | 0.5635 | –
303.15 K, x2 = 0.6 | 0.5481 | –
303.15 K, x2 = 0.6999 | 0.5352 | –
303.15 K, x2 = 0.7998 | 0.5283 | –
303.15 K, x2 = 0.9 | 0.5256 | –
303.45 K, x1 = 0.1 | – | 0.5477
303.45 K, x1 = 0.3 | – | 0.5618
303.45 K, x1 = 0.8 | – | 0.7003
303.75 K, x1 = 0.5 | – | 0.5991
303.95 K, x1 = 0.4 | – | 0.5688
304.25 K, x1 = 0.6 | – | 0.6143
308.15 K, x2 = 0.0999 | 0.6829 | –
308.15 K, x2 = 0.2003 | 0.6256 | –
308.15 K, x2 = 0.3 | 0.5822 | –
308.15 K, x2 = 0.3999 | 0.5527 | –
308.15 K, x2 = 0.5 | 0.5308 | –
308.15 K, x2 = 0.6 | 0.5152 | –
308.15 K, x2 = 0.6999 | 0.5054 | –
308.15 K, x2 = 0.7998 | 0.4991 | –
308.15 K, x2 = 0.9 | 0.497 | –
312.45 K, x1 = 0.1 | – | 0.4994
312.45 K, x1 = 0.3 | – | 0.51
312.95 K, x1 = 0.8 | – | 0.6059
313.15 K, x1 = 0.2 | – | 0.4976
313.15 K, x1 = 0.4 | – | 0.5137
313.15 K, x1 = 0.4974 | 0.5095 | –
313.15 K, x2 = 0.0999 | 0.6359 | –
313.15 K, x2 = 0.2003 | 0.585 | –
313.15 K, x2 = 0.3 | 0.5466 | –
313.15 K, x2 = 0.3999 | 0.5206 | –
313.15 K, x2 = 0.5 | 0.4996 | –
313.15 K, x2 = 0.7998 | 0.4731 | –
313.15 K, x2 = 0.9 | 0.4707 | –
313.45 K, x1 = 0.5 | – | 0.5412
313.65 K, x1 = 0.6 | – | 0.5482
318.15 K, x2 = 0.0999 | 0.5914 | –
318.15 K, x2 = 0.2003 | 0.548 | –
318.15 K, x2 = 0.3 | 0.5136 | –
318.15 K, x2 = 0.3999 | 0.4913 | –
318.15 K, x2 = 0.5 | 0.4722 | –
318.15 K, x2 = 0.6 | 0.4614 | –
318.15 K, x2 = 0.6999 | 0.4531 | –
318.15 K, x2 = 0.7998 | 0.449 | –
318.15 K, x2 = 0.9 | 0.447 | –
322.75 K, x1 = 0.8 | – | 0.5481
323.15 K, x1 = 0.5989 | 0.4735 | –
323.15 K, x2 = 0.0999 | 0.5534 | –
323.15 K, x2 = 0.2003 | 0.5139 | –
323.15 K, x2 = 0.3 | 0.4839 | –
323.15 K, x2 = 0.3999 | 0.4632 | –
323.15 K, x2 = 0.5 | 0.4466 | –
323.15 K, x2 = 0.6 | 0.4383 | –
323.15 K, x2 = 0.6999 | 0.4304 | –
323.15 K, x2 = 0.7998 | 0.4264 | –
323.15 K, x2 = 0.9 | 0.4243 | –

COC(C)=O + Cc1ccccc1
viscosity [mPa·s], 101 kPa
Details | 298.15 K | 308.15 K
x1 = 0.0413 | 0.536 | 0.487
x1 = 0.1501 | 0.502 | 0.459
x1 = 0.2505 | 0.476 | 0.437
x1 = 0.3495 | 0.454 | 0.419
x1 = 0.4385 | 0.437 | 0.404
x1 = 0.4859 | 0.429 | 0.397
x1 = 0.5491 | 0.42 | 0.389
x1 = 0.6486 | 0.407 | 0.377
x1 = 0.7514 | 0.397 | 0.367
x1 = 0.848 | 0.39 | 0.36
x1 = 0.9445 | 0.386 | 0.354

— the CheMixHub viscosity set
